Data set [1] deals with T1, hmGluR5a receptor (Homo sapiens, UniProt P41594).
T1 construct: expressed in transfected cells; host or cells: mouse fibroblast Ltk cells (hmGluR5a/L38-20 cell line)
The data set is described as follows: Calcium flux assay. It counts as cell-based. To be noted: hmGluR5a/L38-20 cells (mouse fibroblast Ltk), fura-2, glutamate 10 μM (EC80); read-out: Ca^2+ Flux. As to the method:
The activity of compounds was examined against the hmGluR5a receptor stably expressed in mouse fibroblast Ltk cells (the hmGluR5a/L38-20 cell line). See generally Daggett et al., Neuropharmacology 34:871–886 (1995). Receptor activity was detected by changes in intracellular calcium ([Ca^++]i) measured using the fluorescent calcium-sensitive dye, fura-2. hmGluR5a/L38-20 cells were plated onto 96-well plates, and loaded with 3 μM fura-2 for 1 h. Unincorporated dye was washed from the cells, and the cell plate was transferred to a custom-built 96-channel fluorimeter (SIBIA-SAIC, La Jolla, Calif.) which is integrated into a fully automated plate handling and liquid delivery system. Cells were excited at 350 and 385 nm with a xenon source combined with optical filters. Emitted light was collected from the sample through a dichroic mirror and a 510-nm interference filter and directed into a cooled CCD camera (Princeton Instruments). Image pairs were captured approximately every 1 s, and ratio images were generated after background subtraction. After a basal reading of 20 s, an EC80 concentration of glutamate (10 μM) was added to the well, and the response evaluated for another 60 s. The glutamate-evoked increase in [Ca^++]i in the presence of the screening compound was compared to the response of glutamate alone (the positive control).

Data set [2] concerns the target T2, hmGluR5 (Homo sapiens, UniProt P41594).
T2 construct: expressed in transfected cells; host or cells: mouse fibroblast Ltk cells (hmGluR5/L38-20 cells)
The data set is described as follows: Phosphatidylinositol hydrolysis (IP1) assay. The format is cell-based. To be noted: hmGluR5/L38-20 cells (mouse fibroblast Ltk), [3H]-inositol, 10 μM glutamate, 1 hour; read-out: PI Hydrolysis. As to the method:
Inositol phophate assays were performed as described by Berridge et al. (1982) (Berridge et al, (1982) Biochem. J. 206:587–5950; and Nakajima et al., J. Biol. Chem. 267:2437–2442 (1992)) with slight modifications. Mouse fibroblast Ltk cells expressing hmGluR5 (hmGluR5/L38-20 cells) were seeded in 24-well plates at a density of 8×10^5 cells/well. One μCi of [^3H]-inositol (Amersham PT6-271; Arlington Heights, Ill.; specific activity=17.7 Ci/mmol) was added to each well and incubated for 16 h at 37° C. Cells were washed twice and incubated for 45 min in 0.5 ml of standard Hepes buffered saline buffer (HBS; 125 mM NaCl, 5 mM KCl, 0.62 mM MgSO4, 1.8 mM CaCl2, 20 mM HEPES, 6 mM Glucose, pH to 7.4). The cells were washed with HBS containing 10 mM LiCl, and 400 μl buffer added to each well. Cells were incubated at 37° C. for 20 min. For testing, 50 μl of 10X compounds used in the practice of the invention (made in HBS/LiCl (100 mM)) was added and incubated for 10 minutes. Cells were activated by the addition of 10 μM glutamate, and the plates left for 1 hour at 37° C.
The incubations were terminated by the addition of 1 ml ice-cold methanol to each well. In order to isolate inositol phosphates (IPs), the cells were scraped from wells, and placed in numbered glass test tubes. One ml of chloroform was added to each tube, the tubes were mixed, and the phases separated by centrifugation. IPs were separated on Dowex anion exchange columns (AG 1-X8 100–200 mesh formate form). The upper aqueous layer (750 ul) was added to the Dowex columns, and the columns eluted with 3 ml of distilled water. The eluents were discarded, and the columns were washed with 10 mls of 60 mM ammonium formate/5 mM Borax, which was also discarded as waste. Finally the columns were eluted with 4 ml of 800 mM ammonium formate/0.1 M formic acid, and the samples collected in scintillation vials. Scintillant was added to each vial, and the vials shaken, and counted in a scintillation counter after 2 hours. Phosphatidylinositol hydrolysis in cells treated with test compounds was compared to phosphatidylinositol hydrolysis in cells treated with control and the results are shown in Table 1.

The nature of data set [3]: Assessment of salt forms (solubility, hygroscopicity). It counts as physicochemical. The following applies: salt form. The protocol:
Various salt forms of 2-(phenylethynyl)-1,3-thiazole were prepared, and their solubility, hygroscopicity, and physical state were assessed. The compound 2-phenylethynl-1,3-thiazole was prepared (see Example 8) as well as hydrochloric acid, fumaric acid, methylsulfonic acid and toluene sulfonic acid salt forms of the compound. The hydrochloric acid salt form of 2-(phenylethynyl)-1,3-thiazole is an oil. A fumaric acid salt form was not obtained by preparative steps including trituration with diethylether. Preparation of the methylsulfonate form results in a semi solid, hygroscopic material. These salt forms are typically unsuitable for certain pharmaceutical formulations, such as for tablets, capsules, and the like. In contrast to the salt forms of 2-(phenylethynyl)-1,3-thiazole, described previously, the tosylate salt form (i.e., the toluene sulfonic acid salt) is a solid having a melting point of about 129 up to 131° C. and is non-hygroscopic. Therefore, this form is presently preferred for pharmaceutical formulations of tablets, capsules, and the like.

The test system of data set [4] is male Sprague-Dawley rats, CFA-inflamed hind paw. The data set is described as follows: Analgesic animal model (CFA model). The format is in vivo. More on the design: key: +++: high analgesic efficacy. The following applies: rat, 240 μmol/kg intraperitoneal, evaluated one to 24 hours post administration. The protocol:
Compounds that modulate receptor-mediated analgesic responses wer tested in an animal model. Robust inflammation was induced by the injection of complete Freund's adjuvant (CFA, 10 mg/ml) subcutaneously into the hind paw of male Sprague-Dawley rats (150–175 g). The inflammatory response to CFA began approximately 12-hrs post-CFA injection and persisted for several days following inoculation. The inflamed hind paw became sensitive to noxious (paw pinch, plantar test) or innocuous (cold plate, Von Frey filaments) stimuli compared to the contralateral hind paw. Test compounds (240 μmol/kg) were administered via intraperitoneal injection. The analgesic activity of compounds was evaluated one to 24-hours post administration by assessing (1) the duration of analgesic effect; (2) threshold to elicit response; and (3) time from painful stimulus to response. […] For each group of animals, responses following drug administration were compared to responses prior to drug administration.

Structures can show the parent of a compound that is named as a salt.

T1 sequence (P41594 21-1180 isoform P41594-2 limits assumed): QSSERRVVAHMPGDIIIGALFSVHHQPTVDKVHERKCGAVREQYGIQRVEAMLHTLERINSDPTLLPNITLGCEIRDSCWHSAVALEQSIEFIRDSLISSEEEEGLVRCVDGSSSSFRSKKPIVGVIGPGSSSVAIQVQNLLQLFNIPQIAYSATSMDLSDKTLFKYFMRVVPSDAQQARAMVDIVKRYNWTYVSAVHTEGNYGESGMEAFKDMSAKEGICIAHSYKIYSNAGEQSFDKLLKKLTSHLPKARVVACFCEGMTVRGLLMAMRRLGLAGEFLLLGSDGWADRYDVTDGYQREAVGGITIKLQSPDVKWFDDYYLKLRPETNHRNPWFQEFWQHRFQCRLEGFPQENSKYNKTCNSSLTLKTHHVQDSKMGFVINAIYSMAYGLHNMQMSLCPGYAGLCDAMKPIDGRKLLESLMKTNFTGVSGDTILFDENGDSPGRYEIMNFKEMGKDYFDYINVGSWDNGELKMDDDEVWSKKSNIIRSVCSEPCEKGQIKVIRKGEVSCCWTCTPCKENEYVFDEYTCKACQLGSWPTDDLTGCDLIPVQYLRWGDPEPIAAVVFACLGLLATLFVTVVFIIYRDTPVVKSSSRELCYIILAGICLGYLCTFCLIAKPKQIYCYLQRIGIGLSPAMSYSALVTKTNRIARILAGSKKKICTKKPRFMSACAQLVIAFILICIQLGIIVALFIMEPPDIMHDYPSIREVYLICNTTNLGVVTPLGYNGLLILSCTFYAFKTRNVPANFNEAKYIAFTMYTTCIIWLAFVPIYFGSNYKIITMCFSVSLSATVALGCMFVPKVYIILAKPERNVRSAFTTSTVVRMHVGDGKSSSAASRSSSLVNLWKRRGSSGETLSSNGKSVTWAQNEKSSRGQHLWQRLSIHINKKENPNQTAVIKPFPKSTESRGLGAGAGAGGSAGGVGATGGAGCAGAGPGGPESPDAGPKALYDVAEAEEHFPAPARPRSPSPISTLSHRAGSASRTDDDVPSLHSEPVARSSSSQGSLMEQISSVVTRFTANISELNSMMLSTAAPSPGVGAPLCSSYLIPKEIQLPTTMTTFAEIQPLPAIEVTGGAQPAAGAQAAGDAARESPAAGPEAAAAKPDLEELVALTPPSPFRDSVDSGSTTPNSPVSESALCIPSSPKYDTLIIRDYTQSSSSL
T2 sequence (P41594 21-1180 isoform P41594-2 limits assumed): as above

For the compound `Cc1csc(C=Cc2ccccc2)n1` (mixture of isomers) [Example 2, 4-Methyl-2-[2-phenylethenyl]-1,3-thiazole], the IC50 is 10 to 100 nM in data set [1] and 10000 to 100000 nM in data set [2].

On to `Cc1coc(/C=C/c2ccccc2)n1` [Example 1, 4-Methyl-2-[(E)-2-phenylethenyl]-1,3-oxazole], for which the IC50 was 1000 to 10000 nM in data set [1] and 10000 to 100000 nM in data set [2].

For the compound `Cc1nc(/C=C/c2ccccc2)cs1` [Example 3, 2-Methyl-4-[(E)-2-phenylethenyl]-1,3-thiazole], the IC50 in data set [1] was in the range of 100 to 1000 nM; in data set [2], 1000 to 10000 nM.

For the compound `Cc1nc(C#Cc2ccccc2)cs1` [Example 4, 2-Methyl-4-(phenylethynyl)-1,3-thiazole, p-toluenesulfonic acid salt], the IC50 in data set [1] was ≤ 10 nM; in data set [2], ≤ 100 nM.

On to `Nc1nc(C#Cc2ccccc2)cs1` [Example 5, 4-(Phenylethynyl)-1,3-thiazol-2-amine, p-toluenesulfonic acid salt], for which the values for the IC50 in data set [1] and in data set [2] were 10 to 100 nM and 100 to 1000 nM, respectively.

Regarding `Cc1ncsc1C#Cc1ccccc1` [Example 6, 4-Methyl-5-(phenylethynyl)-1,3-thiazole], the IC50 in data set [1] was in the range of 10 to 100 nM; in data set [2] it was 10000 to 100000 nM.

Consider `Cc1ncsc1C#Cc1ccccc1F` [Example 7, 5-[(2-Fluorophenyl)ethynyl]-4-methyl-1,3-thiazole], for which the results for the IC50 in data set [1] and in data set [2] were 100 to 1000 nM and > 100000 nM, respectively.

As for `C(#Cc1nccs1)c1ccccc1.Cc1ccc(S(=O)(=O)O)cc1` [Example 8, 2-(Phenylethynyl)-1,3-thiazole, p-toluenesulfonic acid salt], the IC50 in data set [1] was ≤ 10 nM. In data set [3], the hygroscopicity result is “non-hygroscopic” and the “solubility in aqueous medium” value is reported as “soluble in aqueous medium”. Also, the IC50 in data set [2] fell in the range of 100 to 1000 nM. In addition, the “CFA Model (analgesic efficacy)” value in data set [4] is “+++”.

Consider `Brc1csc(C#Cc2ccccc2)n1` [Example 9, 4-bromo-2-(phenylethynyl)-1,3-thiazole], for which the melting point fell in the range of 79 to 82 °C. Besides, the IC50 in data set [1] lay in the range of 10 to 100 nM. For the same compound, the IC50 in data set [2] was 1000 to 10000 nM.

Turning to `Cc1cnc(C#Cc2ccccc2)s1` [Example 10, 5-Methyl-2-(phenylethynyl)-1,3-thiazole], the melting point was 82 to 83 °C. Further, in data set [1], the IC50 is > 10000 nM. Also, the IC50 in data set [2] was > 100000 nM.

For the compound `Cc1cccc(C#Cc2nccs2)c1` [Example 11, 2-[(3-methylphenyl)ethynyl]-1,3-thiazole], the IC50 was in the range of 10 to 100 nM in data set [1] and 100 to 1000 nM in data set [2].

For `Fc1ccc(C#Cc2nccs2)cc1` [Example 12, 2-[(4-Fluorophenyl)ethynyl]-1,3-thiazole], the melting point was 78 to 79 °C. Also, the IC50 in data set [1] is 100 to 1000 nM. For the same compound, the IC50 in data set [2] fell in the range of 1000 to 10000 nM.

As to `Fc1ccccc1C#Cc1nccs1` [Example 13, 2-[(2-Fluorophenyl)ethynyl]-1,3-thiazole], the IC50 in data set [1] fell in the range of 10 to 100 nM; in data set [2], 100 to 1000 nM.

In the case of `Cc1nc(C#Cc2ccccc2)sc1C` [Example 14, 4,5-Dimethyl-2-(phenylethynyl)-1,3-thiazole], the melting point lay within 55 to 60 °C. The IC50 in data set [1] is ≤ 10 nM. In data set [2], the IC50 was 1000 to 10000 nM.

`Cc1nc(/C=C/c2ccccc2)no1` [Example 15, 5-Methyl-3-[(E)-2-phenylethenyl]-1,2,4-oxadiazole]: the melting point lay within 166 to 168 °C. In addition, the IC50 in data set [1] was > 10000 nM. Besides, the IC50 in data set [2] is > 100000 nM.

The compound `C(=C\c1ncno1)/c1ccccc1` [Example 16, 5-[(E)-2-phenylethenyl]-1,2,4-oxadiazole] displayed a melting point of 53 to 55 °C. In data set [1], the IC50 was > 10000 nM. The IC50 in data set [2] was > 100000 nM.

Compound `Cn1ncnc1/C=C/c1ccccc1` [Example 17, 1-Methyl-5-[(E)-2-phenylethenyl]-1H-1,2,4-triazole] gave a melting point of 67 to 70 °C. In data set [1], the IC50 was > 10000 nM. Further, in data set [2], the IC50 is > 100000 nM.

`Cc1n[nH]c(/C=C/c2ccccc2)n1` [Example 18, 3-Methyl-5-[(E)-2-phenylethenyl]-1H-1,2,4-triazole]: the melting point fell in the range of 131 to 134 °C. For the same compound, in data set [1], the IC50 was > 10000 nM. The IC50 in data set [2] was > 100000 nM.

For `CCOC(=O)c1nc(/C=C/c2ccccc2)ns1` [Example 19, Ethyl 3-[(E)-2-phenylethenyl]-1,2,4-thiadiazole-5-carboxylate], the melting point fell in the range of 79 to 80 °C. Besides, in data set [1], the IC50 is 100 to 1000 nM. In addition, the IC50 in data set [2] was in the range of 10000 to 100000 nM.

The compound `OCc1nc(/C=C/c2ccccc2)ns1` [Example 20, {3-[(E)-2-phenylethenyl]-1,2,4-thiadiazol-5-yl}methanol] came in with a melting point of 119 to 120 °C. In addition, the IC50 in data set [1] was in the range of 1000 to 10000 nM. For the same compound, in data set [2], the IC50 was > 100000 nM.

In the case of `Cc1ccc(C#CC2=CCCCC2)s1` [Example 21, 2-(1-Cyclohexen-1-ylethynyl)-5-methylthiophene], the IC50 was > 10000 nM in data set [1] and > 100000 nM in data set [2].

With `C(#Cc1nccs1)c1ccccc1` [methylsulfonate form, 2-(phenylethynyl)-1,3-thiazole], in data set [3], the hygroscopicity result is given as “hygroscopic”.

The values are drawn from patent US6956049B1, “Methods of modulating processes mediated by excitatory amino acid receptors” (Merck & Co., Inc., priority 1999, dated 2005).
